Results as given in PMC8308845, “Discovery of Novel Chemical Series of OXA-48 β-Lactamase Inhibitors by High-Throughput Screening” (Pharmaceuticals, 2021).

Tests used:
[1] = system: K. pneumoniae ATCC BAA-2524; assay: MIC by broth microdilution, β-lactam-resistant strain producing OXA-48; assay type: cell-based, Klebsiella pneumoniae; conditions: for MIC: Klebsiella pneumoniae, ATCCBAA2524, β-lactam alone, read-out: MIC β-lactam
Text: (§1) To evaluate the capability of restoring β-lactam susceptibility, the two most promising representatives of SC_2 (ID3) and SC_7 (ID2) were screened alone and in combination with ampicillin (AMP) and IMP against sensitive and resistant Gram-negative bacteria. Avibactam and tazobactam were also included in the MIC characterization as BLI reference compounds. Specifically, we used E. coli ATCC25922 as antibiotic-sensitive strain, while E. coli ATCC BAA-2523 and K. pneumoniae ATCC BAA-2524 as β-lactam-resistant bacteria, producing OXA-48 carbapenemase.
(§2) Test compounds and tazobactam were tested at 32 µg/mL, while avibactam was applied at 4 µg/mL. […] Both antibiotics were selected for the combination study as they can be hydrolyzed by the target OXA-48 enzyme.
(§3) MIC values were determined by the broth dilution method and interpreted using published guidelines described by Clinical and Laboratory Standards Institute (CLSI).
(§4) All BLIs were dissolved in 100% DMSO and they were tested at a fixed concentration of 32 µg/mL and 1% of DMSO final concentration. Avibactam was used as reference β-lactamase inhibitor. All antimicrobials were prepared in line with CLSI susceptibility testing standards. AMP (USP # 1033000; batch no. K1M493) was dissolved at 5.12 mg/mL, IMP (USP # 1337809; batch no. R038R0) and avibactam (Biochem # NXL 104; batch no. 20180726) were dissolved at 1.28 mg/mL in the respective solvents recommended by CLSI (2). Solutions at 4X the final concentrations of the test range were made in Cation adjusted Mueller-Hinton broth (CA-MHB, BD # 212322; batch no. 6117994; Expiry date: 29.02.2020) by serial dilutions, and then diluted 2-fold with CA-MHB (for antimicrobials alone), or with the BLIs/avibactam (for combinations of new/reference inhibitors and antimicrobials). Moreover, all BLIs were tested alone at a fixed concentration of 32 μg/mL. The final concentration of DMSO in the test tubes was 1% for each different combination.
(§5) 50 μL of each well were then transferred from the masterblock into 96-well plates to whom were then added 50 μL of the final inoculum. MIC tests were performed by broth microdilution in line with CLSI susceptibility testing standards. Bacterial inocula were prepared at ca. 1 × 10^6 CFU/mL by diluting 100-fold a 0.5 McFarland suspension in CA-MHB with TES (TREK Diagnostic Systems, Product code: T3462; Batch: 356347; Expiry date: 12-Jun-2019). 50 μL of antibacterial solutions at 2 × the final concentrations were diluted 2-fold with 50 μL of inoculum to give a final inoculum of ca. 5 × 10^5 CFU/mL and desired test concentrations of antibacterial agents. Test plates were incubated according to CLSI guidelines and read visually. MIC values corresponded to the first well with no visible growth.

[2] = system: E. coli ATCC BAA-2523; assay: as above; assay type: cell-based, Escherichia coli; conditions: for MIC: Escherichia coli, ATCCBAA2523, β-lactam alone, read-out: MIC β-lactam
Text: as §1, §2, §3, §4, §5

[3] = system: E. coli ATCC25922; assay: MIC by broth microdilution, antibiotic-sensitive strain; assay type: cell-based; conditions: Escherichia coli, β-lactam alone, read-out: MIC β-lactam
Text: as §1, §2, §3, §4, §5

[4] = biological target: T1, OXA-48 (Klebsiella pneumoniae, UniProt Q6XEC0); assay: OXA-48 primary enzymatic assay (nitrocefin substrate, fluorescence-quenching readout); assay type: biochemical; conditions: for AC50 / OXA-48 AC50: dose–response, median of triplicate wells, 15 min preincubation, 25 µM nitrocefin; for fold loss in potency/activity versus parent compound: AC50 ratio, parent ID3 for ID6, parent ID2 for 3 and 5–9
T1 construct: made in house; host or cells: E. coli BL21(DE3), T7 expression system
T1 sequence (Q6XEC0 23-265, looked up): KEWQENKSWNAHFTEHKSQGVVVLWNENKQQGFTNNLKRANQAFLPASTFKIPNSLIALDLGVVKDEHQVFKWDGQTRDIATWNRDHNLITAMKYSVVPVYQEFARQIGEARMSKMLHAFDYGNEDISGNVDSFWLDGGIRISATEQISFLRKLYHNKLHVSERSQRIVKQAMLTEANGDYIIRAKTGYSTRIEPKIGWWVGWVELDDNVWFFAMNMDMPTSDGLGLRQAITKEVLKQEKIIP
Method: After an initial pilot run (three plates, consisting of 960 randomly selected compounds), the primary screening of the subset plates was carried out at 20 µM in single point against OXA-48 enzyme in a nitrocefin-based assay, using the fluorescence-quenching readout. This enzymatic assay employs the cephalosporin nitrocefin as OXA-48 substrate and takes advantage of the fluorescent properties of white microtiter plates. Chromogenic nitrocefin is hydrolyzed by β-lactamases to yield a product with increased absorbance properties (~495 nm) that quenches the plate fluorescence by absorbing the plate’s emission light. In this assay, test compounds that inhibit OXA-48 catalytic activity are predicted to reduce nitrocefin quenching of plate fluorescence, resulting in a quantitative increase in well fluorescence (ON-system for inhibitors). The nitrocefin-based epi-absorbance readout system has been successfully applied in HTS campaigns on other β-lactamases, such as IMP-1 and VIM-2, with the identification of inhibitors belonging to novel scaffolds displaying a favourable degree of selectivity and sub-micromolar potency.
The screening results were expressed as activity percent. […] Overall, the primary assay robustness was good, with Robust Z Prime factor (RZ′) equal to 0.86.
In total, 256 active molecules (125 from the subset and 131 from the full set) were then assayed in dose–response at eight concentrations from 60 to 0.002 µM with interplate triplicate data points.
The blaOXA gene coding for the OXA-48 ß-lactamase, originally cloned from the K. pneumonia 11978 (a clinical isolate from Istanbul Faculty Hospital, Istanbul, Turkey) was overexpressed via a T7 expression system in E. coli BL21(DE3), and its product, native protein, (final yield of 30 mg/L of culture) was subjected to several purification steps, including ion-exchange chromatography with Q-Sepharose and 20 mM Tris-HCl buffer (pH 9.0), followed by chromatography with S-Sepharose columns and 100 mM sodium phosphate buffer (pH 5.8). Elution of the beta-lactamase was performed with a K2SO4 gradient. Peaks of beta-lactamase activity were concentrated and were dialyzed with 100 mM phosphate buffer (pH 7.0). The OXA-48 enzyme was purified to homogeneity (with a degree of purity around 95.4%.)-as measured by 12% SDS PAGE [23]. OXA-48 protein stock solution (2 mg/mL) was finally prepared in 20 mM Hepes (pH 8,1). OXA-48 β-lactamase specific activity was measured by following the hydrolysis of 100 μM nitrocefin (ε: 17,000 M-1 cm^−1 at 482 nm; Δε: 15,000 M-1 cm^−1 at 482 nm) and corresponding to 60.45 μmoles min^−1 mg^−1 of OXA-48 (kcat = 28.85 s^−1) enzyme. A MW of 28,147 g/mol, calculated from the enzyme sequence was confirmed by MALDI-TOF analysis with a Mass error of ± 2.8 Da.
The primary assay was developed to monitor the enzymatic activity of OXA-48 taking advantage of the spectroscopic properties of white microtiter plates (Optiplate-384, PerkinElmer, #6007290), as indicated by Zuck et al.. Nitrocefin is chromogenic substrate for beta-lactamases with λmax = 395 nm (yellow). Upon hydrolysis by OXA-48, nitrocefin yields (2R)-2-[(R)-carboxy[2-(thiophen-2-yl)acetamido]methyl]-5-[(E)-2-(2,4-dinitrophenyl)ethenyl]-3,6-dihydro-2H-1,3-thiazine-4-carboxylic acid, with increased absorbance properties at λmax = 495 nm. Spectroscopic features of the reaction product are exploited to quench the plate intrinsic fluorescence by absorbing the plate’s emission light, which can be monitored by exciting the reaction at 485 nm and recording the emission at 520 nm. Therefore, the primary assay for HTS was an ON-assay, in which compounds targeting OXA-48 were predicted to elicit an increase of the fluorescence signal.
The primary assay was performed in reaction buffer (20 mM Hepes pH 8.0, 12.5 mM NaCl, 0.005% BSA, 0.0005% Brij-35) in the presence of 0.0014 ng/µL OXA-48 and 25 µM nitrocefin in a final volume of 20 µL/well in 384 MTP format. […]

CC1(C)S[C@@H]2[C@H](NC(=O)[C@H](N)c3ccccc3)C(=O)N2[C@H]1C(=O)O [AMP, ampicillin]
MIC [1]: > 512 µg/mL
MIC β-lactam ([1]; β-lactam alone): >512 µg/mL
MIC [2]: > 512 µg/mL
MIC β-lactam ([2]; β-lactam alone): >512 µg/mL
MIC [3]: 4 µg/mL

CCc1ccc(-c2n[nH]c3nc(-c4ccc(C(=O)O)c(F)c4)cc(C(=O)O)c23)cc1 [Compound 1, 6-(4-Carboxy-3-fluorophenyl)-3-(4-ethylphenyl)-1H-pyrazolo[3,4-b]pyridine-4-carboxylic acid]
AC50 [4]: 0.92 µM

CCc1ccc(-c2n[nH]c3nc(-c4ccc(C(=O)O)cc4F)cc(C(=O)O)c23)cc1 [Compound 2, 6-(4-Carboxy-2-fluorophenyl)-3-(4-ethylphenyl)-1H-pyrazolo[3,4-b]pyridine-4-carboxylic acid]
AC50 [4]: 1.48 µM

CCc1ccc(-c2n[nH]c3nc(-c4cccc(C(=O)O)c4)cc(C(=O)O)c23)cc1 [Compound 3, 6-(3-Carboxyphenyl)-3-(4-ethylphenyl)-1H-pyrazolo[3,4-b]pyridine-4-carboxylic acid]
fold loss in potency/activity versus parent compound [4]: 17 fold
AC50 [4]: 16.8 µM

CCc1ccc(-c2n[nH]c3nc(-c4ccc(CC(=O)O)cc4)cc(C(=O)O)c23)cc1 [Compound 4, 6-(4-(Carboxymethyl)phenyl)-3-(4-ethylphenyl)-1H-pyrazolo[3,4-b]pyridine-4-carboxylic acid]
AC50 [4]: 4.78 µM

CCc1ccc(-c2n[nH]c3nc(-c4cc(F)c(O)cc4F)cc(C(=O)O)c23)cc1 [Compound 5, 6-(2,5-Difluoro-4-hydroxyphenyl)-3-(4-ethylphenyl)-1H-pyrazolo[3,4-b]pyridine-4-carboxylic acid]
AC50 [4]: 16.2 µM

CCc1ccc(-c2n[nH]c3nc(-c4cc(F)c(O)c(F)c4)cc(C(=O)O)c23)cc1 [Compound 6, 6-(3,5-Difluoro-4-hydroxyphenyl)-3-(4-ethylphenyl)-1H-pyrazolo[3,4-b]pyridine-4-carboxylic acid]
AC50 [4]: 24.4 µM

CCc1ccc(-c2n[nH]c3nc(-c4ccc(O)c(F)c4F)cc(C(=O)O)c23)cc1 [Compound 7, 6-(2,3-Difluoro-4-hydroxyphenyl)-3-(4-ethylphenyl)-1H-pyrazolo[3,4-b]pyridine-4-carboxylic acid]
AC50 [4]: 51.2 µM

CCc1ccc(-c2n[nH]c3nc(-c4cc(Cl)c(O)c(OC)c4)cc(C(=O)O)c23)cc1 [Compound 8, 6-(3-Chloro-4-hydroxy-5-methoxyphenyl)-3-(4-ethylphenyl)-1H-pyrazolo[3,4-b]pyridine-4-carboxylic acid]
AC50 [4]: 13.7 µM

CCc1ccc(-c2n[nH]c3nc(-c4cc(F)c(O)c(Cl)c4)cc(C(=O)O)c23)cc1 [Compound 9, 6-(3-Chloro-5-fluoro-4-hydroxyphenyl)-3-(4-ethylphenyl)-1H-pyrazolo[3,4-b]pyridine-4-carboxylic acid]
AC50 [4]: 63.8 µM

CCc1ccc(-c2n[nH]c3nc(-c4ccc(C(=O)O)cc4)ccc23)cc1 [Compound 10, 4-(3-(4-Ethylphenyl)-1H-pyrazolo[3,4-b]pyridin-6-yl)benzoic acid]
AC50 [4]: > 100 µM

CCc1ccc(-c2n[nH]c3nc(-c4ccc(C(=O)O)cc4)cc(C(F)(F)F)c23)cc1 [Compound 11, 4-(3-(4-Ethylphenyl)-4-(trifluoromethyl)-1H-pyrazolo[3,4-b]pyridin-6-yl)benzoic acid]
AC50 [4]: > 100 µM

CCc1ccc(-c2n[nH]c3nc(-c4ccc(C(=O)O)cc4)cc(CO)c23)cc1 [Compound 12, 4-(3-(4-Ethylphenyl)-4-(hydroxymethyl)-1H-pyrazolo[3,4-b]pyridin-6-yl)benzoic acid]
AC50 [4]: > 100 µM
OXA-48 AC50 [4]: complete loss of activity

CCc1ccc(-c2n[nH]c3nc(-c4ccc(C(=O)O)cc4)cc(CC)c23)cc1 [Compound 13, 4-(4-Ethyl-3-(4-ethylphenyl)-1H-pyrazolo[3,4-b]pyridin-6-yl)benzoic acid]
AC50 [4]: > 100 µM

CCc1ccc(-c2n[nH]c3nc(-c4ccc(C(=O)O)cc4)cc(C(N)=O)c23)cc1 [Compound 14, 4-(4-Carbamoyl-3-(4-ethylphenyl)-1H-pyrazolo[3,4-b]pyridin-6-yl)benzoic acid]
OXA-48 AC50 [4]: complete loss of activity

O=C(O)c1ccc(/C=N/n2c(S)nnc2-c2ccc(Cl)cc2Cl)cc1 [ID4]
AC50 [4]: 3.17 µM

O=C(O)c1ccc(/C=N/n2c(S)nnc2C2CCCCC2)cc1 [ID5]
AC50 [4]: 2.88 µM

O=C(O)c1ccc(/C=N/n2cnnc2S)cc1 [ID6]
fold loss in potency/activity versus parent compound [4]: more than 20 fold
AC50 [4]: 15.7 µM

COC(=O)c1ccc(/C=N/n2c(S)nnc2-c2ccccc2)cc1 [ID9]
AC50 [4]: 35.6 µM

N#Cc1ccc(/C=N/n2c(S)nnc2-c2ccccc2)cc1 [ID11]
AC50 [4]: 12 µM

Sc1nnc(-c2ccccc2)n1/N=C/c1cccs1 [ID23]
AC50 [4]: 24.8 µM

CCc1ccc(-c2n[nH]c3nc(-c4ccccc4)cc(C(=O)O)c23)cc1 [ID30]
AC50 [4]: 249 µM
OXA-48 AC50 [4]: inactive

CCc1ccc(-c2n[nH]c3nc(-c4ccccc4O)cc(C(=O)O)c23)cc1 [ID31]
OXA-48 AC50 [4]: inactive

C[C@@H](O)[C@H]1C(=O)N2C(C(=O)O)=C(SCCN=CN)C[C@H]12 [IMP, imipenem]
MIC [1]: 4 µg/mL
MIC [2]: 2 µg/mL
MIC [3]: 0.12 µg/mL
